Experimental data reported in patent US20170027949A1, “ASSOCIATION BETWEEN 8-CYCLOPROPYL-3-[2-(3-FLUOROPHENYL)ETHYL]-7,8-DIHYDRO-3H-[1,3]OXAZINO[6,5-g][1,2,3]BENZOTRIAZINE-4,9-DIONE AND AN ACETYLCHOLINESTERASE INHIBITOR, AND PHARMACEUTICAL COMPOSITIONS CONTAINING IT” (priority 2014, published 2017).

Key:
[1] = test system: C57BL/6 mice having an average age of 14-15 months; assay: Contextual serial discrimination test (model of episodic memory); assay type: in vivo; conditions: for percentage of correct responses: chronic treatment for 9 days, middle-aged mice, carrier 26.4%
Text: The effects of 8-cyclopropyl-3-[2-(3-fluorophenyl)ethyl]-7,8-dihydro-3H-[1,3]oxazino-[6,5-g][1,2,3]benzotriazine-4,9-dione and of donepezil (the latter used in the form of a hydrochloride), administered on their own or in combination, were studied using a contextual serial discrimination test in C57BL/6 mice having an average age of 14-15 months (n=12 per group) (Célérier et al., Learn Mem. 2004, 11(2), 196-204; Tronche et al., Behav. Brain Res. 2010, 215(2), 255-260).
The mice, placed in a high-sided box, learn two types of consecutive spatial discriminations (D1: white floor then D2: black floor) on a floor having four holes, in which only one of the holes is baited, opposite holes being baited in D1 and D2. Each discrimination is performed on a specific floor (white or black), which constitutes the internal context specific to each discrimination. Twenty-four hours after the learning step, the mice are returned to the white contextual floor and the following parameters are measured: • the percentage of correct responses (i.e. % of head dips in the hole that had been baited during the acquisition exercise on the white floor), • the percentage of interfering responses (i.e. % of head dips in the hole that had been baited during the acquisition exercise on the black floor, the last context presented to the mice), • and the percentage of errors (i.e. % of head dips in the two holes that had not been baited during the acquisition, either on the white floor or on the black floor) (see FIG. 1).

[2] = test system: 3-month-old C57BL/6 mice; assay: Excitatory post-synaptic potentials (EPSP) induced by electrical stimulation in alert mice (perforant pathway / dentate gyrus of the hippocampus); assay type: in vivo; conditions: single dose p.o.: Compound S 3 mg/kg, rivastigmine 0.03 mg/kg, alone or in association
Text: Studying EPSPs induced by electrical stimulation in alert mice makes it possible to study physiologically an electrophysiological phenomenon which is the basis of neuronal activity and connected to the processes of memorisation and learning.
3-month-old C57BL/6 mice are anaesthetised with 0.8-3% halothane delivered by means of a mask. Once anaesthetised, stimulation and recording electrodes are inserted, respectively, in the perforant pathway and the dentate gyrus of the hippocampus of the animals. Following implantation of the electrodes, the mice are kept in cages for from 5 to 7 days with free access to food and water in order to allow complete recovery. Each implanted animal is alone in a cage until the end of the experiment.
After recovery, a stable baseline of evoked responses is induced using paired pulses (pulse duration 100 μs, negative-positive) administered at 3 pulses/minute to the stimulation electrode situated in the perforant pathway. The intervals between pulses are fixed at 40 ms (Gruart et al., J. Neurosci. 2006, 24, 1077-1087). The field EPSPs are monitored until a stable baseline is obtained (for 30 minutes). The products or the carrier are then administered, and the evoked field potentials are recorded. […] The evoked potentials are then recorded for approximately 2.5 hours after the last administration of compound or carrier.

[3] = test system: C57BL/6 mice; assay: Irwin's primary observation test; conditions: on its own
Experimental: The effects in terms of safety of 8-cyclopropyl-3-[2-(3-fluorophenyl)ethyl]-7,8-dihydro-3H-[1,3]oxazino[6,5-g][1,2,3]benzotriazine-4,9-dione and of donepezil (the latter in the form of a hydrochloride), administered on their own or in association, were studied using Irwin's primary observation test in C57BL/6 mice (n=4 individuals per group). Behavioural changes, physiological and neurotoxic symptoms, rectal temperature and also pupil diameter were recorded using a standardised observation grid derived from that of Irwin.

Structure (SMILES) | percentage of correct responses ([1]; 0.1 mg/kg per os) | percentage of correct responses ([1]; 0.3 mg/kg per os) | increase in level of correct responses relative to the carrier ([1]; doses of 0.1 and 0.3 mg/kg per os, 9 days, significant) | amplitudes of the field EPSPs relative to the carrier group [2] | change in percentage of correct responses relative to the carrier ([1]; 0.1 mg/kg of base per os, 9 days) | change according to the standardised observation grid ([3]; 0.3 and 1 mg/kg of base per os, acute) | change according to the standardised observation grid ([3]; 3 and 10 mg/kg of base per os)
O=C1c2cc3nnn(CCc4cccc(F)c4)c(=O)c3cc2OCN1C1CC1 [Compound S, 8-cyclopropyl-3-[2-(3-fluorophenyl)ethyl]-7,8-dihydro-3H-[1,3]oxazino[6,5-g][1,2,3]benzotriazine-4,9-dione] | 43.7% | 48% | more than 40% | does not induce a significant modification |  |  | 
COc1cc2c(cc1OC)C(=O)C(CC1CCN(Cc3ccccc3)CC1)C2 (stereo not drawn) [donepezil] | 35.5% |  |  |  | slight non-significant increase | do not induce any change | induces shaking, slight to moderate sedation, a loss of muscle tone and a decrease in reactivity to touch
CCN(C)C(=O)Oc1cccc([C@H](C)N(C)C)c1 [rivastigmine] |  |  |  | does not induce a significant modification |  |  | 
